≈ marks a conversion by molar mass, not a printed value. Read-outs that look alike come from different tables or passages of the source. Each block holds one compound with its values, some of them ahead of it.
Tests used:
Hafnia alvei [1] = experiment: MIC by agar dilution (NCCLS M7-A4), 288 enteropathogenic isolates, eight quinolones; type: cell-based; details: Hafnia alvei (n = 32)
Aeromonas spp. [2] = experiment: as above; type: cell-based; details: Aeromonas spp. (n = 16)
Shigella spp. [3] = experiment: MIC by agar dilution (NCCLS M7-A4), 288 enteropathogenic isolates, gemifloxacin and 15 other antimicrobials; type: cell-based; details: Shigella spp. N= 21
Experimental: [A. hydrophila (12), and A. sobria (4)], and 91 Campylobacter jejuni. […] The strains were stored in skimmed-milk at -80 °C until studied.
The plates were incubated aerobically at 35 °C for 24 h, except for Campylobacter jejuni, where a microaerophilic atmosphere was obtained by using Campy Pack (Becton Dickinson, Cockeysville, MD, USA), and incubation was for 48 h. All organisms were tested with an inoculum of ≅ 10^4 cfu/spot. MICs were defined as the lower antibiotic concentration with no visible growth.

Salmonella spp. [4] = experiment: MIC by agar dilution (NCCLS M7-A4), 288 enteropathogenic isolates, eight quinolones; type: cell-based; details: for MIC: ciprofloxacin MIC ≥[…], read-out: MIC
Yersinia enterocolitica [5] = experiment: MIC by agar dilution (NCCLS M7-A4), 288 enteropathogenic isolates, gemifloxacin and 15 other antimicrobials; type: cell-based; details: Yersinia enterocolitica N= 22
Yersinia enterocolitica [6] = experiment: MIC by agar dilution (NCCLS M7-A4), 288 enteropathogenic isolates, eight quinolones; type: cell-based; details: Yersinia enterocolitica (n = 22)
Campylobacter jejuni [7] = experiment: MIC by agar dilution (NCCLS M7-A4), 288 enteropathogenic isolates, gemifloxacin and 15 other antimicrobials; details: Campylobacter jejuni
Hafnia alvei [8] = experiment: as above; type: cell-based; details: Hafnia alvei N= 32
Salmonella spp. [9] = experiment: as above; type: cell-based
Shigella spp. [10] = experiment: MIC by agar dilution (NCCLS M7-A4), 288 enteropathogenic isolates, eight quinolones; type: cell-based; details: Shigella spp. (n = 21)
Aeromonas spp. [11] = experiment: MIC by agar dilution (NCCLS M7-A4), 288 enteropathogenic isolates, gemifloxacin and 15 other antimicrobials; type: cell-based; details: Aeromonas spp. N= 16
Campylobacter jejuni [12] = experiment: MIC by agar dilution (NCCLS M7-A4), 5% sheep blood, microaerophilic 48 h; type: cell-based; details: Campylobacter jejuni (n=91)
Streptococcus pneumoniae [13] = experiment: MIC by E-test (broth microdilution for gemifloxacin), 107 pneumococcal carrier isolates, Athens 1998; type: cell-based; details: Streptococcus pneumoniae, E-test; for MIC50: read-out: MIC50; for MIC90: read-out: MIC90
Experimental: Susceptibility testing was performed by agar dilution or epsilometer method (E-test), as recommended by the NCCLS. […] The susceptibility profiles of the strains were assessed using the Epsilometer method (E-test). The isolates were subdivided into two groups according to their penicillin susceptibility patterns (penicillin-susceptible and penicillin-intermediate.

Staphylococcus aureus = experiment: MIC by agar macrodilution (NCCLS), 373 Gram positive isolates, Athens 1998; type: cell-based; details: Methicillin-susceptible Staphylococcus aureus (n = 85)
Streptococcus pneumoniae [14] = experiment: MIC by agar dilution (NCCLS), 411 isolates Buenos Aires 1998-99; type: cell-based; details: Streptococcus pneumoniae, S. pneumoniae, read-out: MIC90
[15] = 24 h, read-out: MIC (mg/L) Range
[16] = Penicillin-intermediate S. pneumoniae (n = 24)
[17] = Penicillin-susceptible S. pneumoniae (n = 107)

Compound: CCn1cc(C(=O)O)c(=O)c2cc(F)c(N3CCNCC3)cc21 [Norfloxacin, norfloxacin]
% Susceptible (Hafnia alvei [1]): 100%
MIC50 (Hafnia alvei [1]): 0.03 µg/mL (≈ 0.0939 µM)
MIC90 (Hafnia alvei [1]): 0.03 µg/mL (≈ 0.0939 µM)
MIC Range (Hafnia alvei [1]): ≤0.015 to 0.03 µg/mL
% Susceptible (Aeromonas spp. [2]): 100%
MIC50 (Aeromonas spp. [2]): ≤ 0.015 µg/mL
MIC90 (Aeromonas spp. [2]): 0.03 µg/mL (≈ 0.0939 µM)
MIC Range (Aeromonas spp. [2]): ≤0.015 to 0.12 µg/mL
MIC (Shigella spp. [3]; [15]): 0.03 to 0.06 mg/L (≈ 0.0939 to 0.188 µM)
MIC (Shigella spp. [3]; read-out: MIC (mg/L) 50%): 0.06 mg/L (≈ 0.188 µM)
MIC (Shigella spp. [3]; read-out: MIC (mg/L) 90%): 0.06 mg/L (≈ 0.188 µM)
MIC (Salmonella spp. [4]; S. hadar (n = 2)): 4 µg/mL (≈ 12.5 µM)
MIC (Salmonella spp. [4]; S. newport (n = 1)): 2 µg/mL (≈ 6.26 µM)
MIC (Salmonella spp. [4]; S. virchow (n = 2)): 0.5 µg/mL (≈ 1.57 µM)
% Susceptible (Salmonella spp. [4]; Salmonella spp. (n = 106)): 100%
MIC50 (Salmonella spp. [4]; Salmonella spp. (n = 106)): 0.06 µg/mL (≈ 0.188 µM)
MIC90 (Salmonella spp. [4]; Salmonella spp. (n = 106)): 0.5 µg/mL (≈ 1.57 µM)
MIC Range (Salmonella spp. [4]; Salmonella spp. (n = 106)): 0.06 to 4 µg/mL
MIC (Salmonella spp. [4]; Salmonella, S. tshiongwe (n = 1)): 4 µg/mL (≈ 12.5 µM)
MIC (Yersinia enterocolitica [5]; [15]): 0.06 to 0.5 mg/L (≈ 0.188 to 1.57 µM)
MIC (Yersinia enterocolitica [5]; read-out: MIC (mg/L) 50%): 0.06 mg/L (≈ 0.188 µM)
MIC (Yersinia enterocolitica [5]; read-out: MIC (mg/L) 90%): 0.06 mg/L (≈ 0.188 µM)
% Susceptible (Yersinia enterocolitica [6]): 100%
MIC50 (Yersinia enterocolitica [6]): 0.06 µg/mL (≈ 0.188 µM)
MIC90 (Yersinia enterocolitica [6]): 0.06 µg/mL (≈ 0.188 µM)
MIC Range (Yersinia enterocolitica [6]): 0.06 to 0.5 µg/mL
MIC (Campylobacter jejuni [7]; read-out: MIC (mg/L) 50%): 128 mg/L (≈ 401 µM)
MIC (Campylobacter jejuni [7]; read-out: MIC (mg/L) 90%): > 128 mg/L
MIC (Hafnia alvei [8]; [15]): 0.015 to 0.03 mg/L (≈ 0.047 to 0.0939 µM)
MIC (Hafnia alvei [8]; read-out: MIC (mg/L) 50%): 0.03 mg/L (≈ 0.0939 µM)
MIC (Hafnia alvei [8]; read-out: MIC (mg/L) 90%): 0.03 mg/L (≈ 0.0939 µM)
MIC (Salmonella spp. [9]; S. hadar(2), isolates with MICs for ciprofloxacin ≥[…], read-out: MIC): 4 mg/L (≈ 12.5 µM)
MIC (Salmonella spp. [9]; S. newport(1), isolate with MIC for ciprofloxacin ≥[…], read-out: MIC): 2 mg/L (≈ 6.26 µM)
MIC (Salmonella spp. [9]; S. virchow(2), isolates with MICs for ciprofloxacin ≥[…], read-out: MIC): 0.5 mg/L (≈ 1.57 µM)
MIC (mg/L) Range (Salmonella spp. [9]; Salmonella spp. N= 106): 0.06 to 4 mg/L
MIC (Salmonella spp. [9]; Salmonella, S. tshiongwe(1), isolate with MIC for ciprofloxacin ≥[…], read-out: MIC): 4 mg/L (≈ 12.5 µM)
MIC (Salmonella spp. [9]; Salmonella, read-out: MIC (mg/L) 50%, Salmonella spp. N= 106): 0.06 mg/L (≈ 0.188 µM)
MIC (Salmonella spp. [9]; Salmonella, read-out: MIC (mg/L) 90%, Salmonella spp. N= 106): 0.5 mg/L (≈ 1.57 µM)
% Susceptible (Shigella spp. [10]): 100%
MIC50 (Shigella spp. [10]): 0.06 µg/mL (≈ 0.188 µM)
MIC90 (Shigella spp. [10]): 0.06 µg/mL (≈ 0.188 µM)
MIC Range (Shigella spp. [10]): 0.03 to 0.06 µg/mL
MIC (mg/L) Range (Aeromonas spp. [11]): ≤0.015 to 0.12 mg/L
MIC (Aeromonas spp. [11]; read-out: MIC (mg/L) 50%): ≤ 0.015 mg/L
MIC (Aeromonas spp. [11]; read-out: MIC (mg/L) 90%): 0.03 mg/L (≈ 0.0939 µM)
% Susceptible (Campylobacter jejuni [12]): 31.86%
MIC50 (Campylobacter jejuni [12]): 128 µg/mL (≈ 401 µM)
MIC90 (Campylobacter jejuni [12]): > 128 µg/mL

MIC50 (Streptococcus pneumoniae [13]; [16]): 1 µg/mL (≈ 1.34 µM)
MIC90 (Streptococcus pneumoniae [13]; [16]): ≥ 256 µg/mL
MIC50 (Streptococcus pneumoniae [13]; [17]): 0.75 µg/mL (≈ 1 µM)
MIC90 (Streptococcus pneumoniae [13]; [17]): 3 µg/mL (≈ 4.01 µM)
MIC50 (Staphylococcus aureus; read-out: MIC50): 1 µg/mL (≈ 1.34 µM)
MIC90 (Staphylococcus aureus; read-out: MIC90): 2 µg/mL (≈ 2.67 µM)
MIC90 (Streptococcus pneumoniae [14]; Penicillin intermediate (n = 17)): 1 µg/mL (≈ 1.34 µM)
MIC90 (Streptococcus pneumoniae [14]; Penicillin resistant (n = 4)): 0.06 µg/mL (≈ 0.0801 µM)
MIC90 (Streptococcus pneumoniae [14]; Penicillin susceptible (n = 69)): 0.06 µg/mL (≈ 0.0801 µM)
Compound: CC[C@H]1OC(=O)[C@H](C)[C@@H](O[C@H]2C[C@@](C)(OC)[C@@H](O)[C@H](C)O2)[C@H](C)[C@@H](O[C@@H]2O[C@H](C)C[C@H](N(C)C)[C@H]2O)[C@](C)(O)C[C@@H](C)CN(C)[C@H](C)[C@@H](O)[C@]1(C)O [Azithromycin, azithromycin]

From EP1561465A2, “Methods of use of fluoroquinolone compounds against bacteria” (LG Life Sciences, Ltd., priority 1999, dated 2001)
